Results as given in patent US20070117743A1, “New antitumoral compounds” (priority 2003, published 2007).

How the values were obtained:
Assay type in all cases: cell-based, human
A-549 = assay: SRB colorimetric assay of cell growth and viability, A-549; settings: 48 hours exposure; for GI50: read-out: GI50 A-549; for CC50: read-out: LC50 A-549
From the text: (§1) The finality of this assay is to interrupt the growth of a “in vitro” tumor cell culture by means a continued exhibition of the cells to the sample to be testing.
(§2) This form of the assay employs 96 well cell culture microplates of 9 mm diameter (Faircloth, 1988; Mosmann, 1983). Most of the cell lines are obtained from American Type Culture Collection (ATCC) derived from different human cancer types.
(§3) Cells are maintained in RPMI 1640 10% FBS, supplemented with 0.1 g/l penicillin and 0.1 g/l streptomycin sulfate and then incubated at 37° C., 5% CO2 and 98% humidity. For the experiments, cells were harvested from subconfluent cultures using trypsin and resuspended in fresh medium before plating.
(§4) Cells are seeded in 96 well microtiter plates, at 5×10^3 cells per well in aliquots of 195 μL medium, and they are allowed to attach to the plate surface by growing in drug free medium for 18 hours. Afterward, samples are added in aliquots of 5 μL in a ranging from 10 to 10^−8 μg/mL, dissolved in DMSO:EtOH:PBS (0.5:0.5:99). After 48 hours exposure, the antitumor effect are measured by the SRB methodology: cells are fixed by adding 50 μL of cold 50% (wt/vol) trichloroacetic acid (TCA) and incubating for 60 minutes at 4° C. Plates are washed with deionized water and dried. One hundred μL of SRB solution (0.4% wt/vol in 1% acetic acid) is added to each microtiter well and incubated for 10 minutes at room temperature. Unbound SRB is removed by washing with 1% acetic acid. Plates are air dried and bound stain is solubilized with Tris buffer. Optical densities are read on a automated spectrophotometric plate reader at a single wavelength of 490 nm.
(§5) The values for mean+/− SD of data from triplicate wells are calculated. Some parameters for cellular responses can be calculated: GI=growth inhibition, TGI=total growth inhibition (cytostatic effect) and LC=cell killing (cytotoxic effect).

SK-MEL-28 = assay: SRB colorimetric assay of cell growth and viability, SK-MEL-28; settings: 48 hours exposure; for CC50: read-out: LC50 MEL-28
From the text: as §1, §2, §3, §4, §5

HT-29 = assay: SRB colorimetric assay of cell growth and viability, HT-29; settings: 48 hours exposure; for GI50: read-out: GI50 HT-29; for CC50: read-out: LC50 HT-29
From the text: as §1, §2, §3, §4, §5

LoVo = assay: SRB colorimetric assay of cell growth and viability, LoVo; settings: 48 hours exposure; for CC50: read-out: LC50 LOVO
From the text: as §1, §2, §3, §4, §5

LoVo-Dox = assay: SRB colorimetric assay of cell growth and viability, LoVo-Dox; settings: 48 hours exposure; for CC50: read-out: LC50 LOVO-DOX
From the text: as §1
A colorimetric type of assay, using sulforhodamine B (SRB) reaction has been adapted for a quantitative measurement of cell growth and viability [following the technique described by Philip Skehan, et al. (1990), New colorimetric cytotoxicity assay for anticancer drug screening, J. Natl. Cancer Inst., 82:1107-1112].
as §2, §3, §4, §5

DU-145 = assay: SRB colorimetric assay of cell growth and viability, DU-145; settings: 48 hours exposure
From the text: as §1, §2, §3, §4, §5

IGROV-1 = assay: SRB colorimetric assay of cell growth and viability, IGROV-1; settings: 48 hours exposure
From the text: as §1, §2, §3, §4, §5

IGROV-ET = assay: SRB colorimetric assay of cell growth and viability, IGROV-ET; settings: 48 hours exposure; for CC50: read-out: LC50 IGROV-ET
From the text: as §1, §2, §3, §4, §5

HeLa = assay: SRB colorimetric assay of cell growth and viability, HeLa; settings: 48 hours exposure; for CC50: read-out: LC50 HELA
From the text: as §1, §2, §3, §4, §5

HeLa-APL = assay: SRB colorimetric assay of cell growth and viability, HeLa-APL; settings: 48 hours exposure; for CC50: read-out: LC50 HELA-APL
From the text: as §1, §2, §3, §4, §5

K-562 = assay: SRB colorimetric assay of cell growth and viability, K-562; settings: 48 hours exposure; for CC50: read-out: LC50 K-562
From the text: as §1, §2, §3, §4, §5

PANC-1 = assay: SRB colorimetric assay of cell growth and viability, PANC-1; settings: 48 hours exposure; for CC50: read-out: LC50 PANC-1
From the text: as §1, §2, §3, §4, §5

Structure (SMILES) | TGI A-549 (A-549) [Molar] | GI50 (A-549) [µM] | CC50 (A-549) [µM] | GI50 (SK-MEL-28) [µM] | TGI MEL-28 (SK-MEL-28) [Molar] | CC50 (SK-MEL-28) [µM] | TGI HT-29 (HT-29) [Molar] | GI50 (HT-29) [µM] | CC50 (HT-29) [µM] | GI50 (LoVo) [µM] | TGI LOVO (LoVo) [Molar] | CC50 (LoVo) [µM] | GI50 (LoVo-Dox) [µM] | TGI LOVO-DOX (LoVo-Dox) [Molar] | CC50 (LoVo-Dox) [µM] | GI50 (DU-145) [µM] | LC50 (concentration causing 50% net cell kill) (DU-145) [µM] | TGI DU-145 (DU-145) [Molar] | GI50 (IGROV-1) [µM] | LC50 (concentration causing 50% net cell killing) (IGROV-1) [µM] | other results
C/C=C1\NC(=O)[C@H](Cc2ccccc2)NC(=O)[C@@H](C(C)C)NC(=O)[C@@H]([C@@H](C)CC)NC(=O)[C@H](NC(=O)[C@H](NC(=O)[C@H](CCCN)NC(=O)[C@H]2CCCN2C(=O)[C@H](NC(=O)[C@@H](NC(=O)[C@@H](NC(=O)[C@@H](NC(=O)CCCC(C)C)C(C)C)[C@@H](C)O)C(C)C)C(C)C)[C@@H](C)CC)[C@@H](C)OC(=O)[C@H](C(C)C)NC1=O [Compound 38, [Val^13]-KF] | 9.88E−07 | 0.307 | 2.44 | 0.805 | 1.68E−06 | 3.55 | 2.12E−06 | 1.16 | 3.88 | 1.29 | 2.40E−06 | 4.47 | 1.12 | 1.94E−06 | 3.36 | 1.66 | 4.22 | 2.65E−06 | 1.01 | 3.53 | TGI IGROV (IGROV-1): 1.89E−06 Molar; GI50 (IGROV-ET): 1.97 µM; TGI IGROV-ET (IGROV-ET): 2.97E−06 Molar; CC50 (IGROV-ET): 4.49 µM; GI50 (HeLa): 0.046 µM; TGI HELA (HeLa): 1.55E−07 Molar; CC50 (HeLa): 0.583 µM; GI50 (HeLa-APL): 1.85 µM; TGI HELA-APL (HeLa-APL): 2.88E−06 Molar; CC50 (HeLa-APL): 4.49 µM; GI50 (K-562): 1.28 µM; TGI K-562 (K-562): 2.28E−06 Molar; CC50 (K-562): 4.05 µM; GI50 (PANC-1): 0.0254 µM; TGI PANC-1 (PANC-1): 1.20E−07 Molar; CC50 (PANC-1): 0.988 µM
C/C=C1\NC(=O)[C@H](Cc2ccccc2)NC(=O)[C@@H](C(C)C)NC(=O)[C@@H]([C@@H](C)CC)NC(=O)[C@H](NC(=O)[C@H](NC(=O)[C@H](CCCN)NC(=O)[C@H]2CCCN2C(=O)[C@H](NC(=O)[C@@H](NC(=O)[C@@H](NC(=O)[C@@H](CCC(=O)O)NC(=O)CCCC(C)C)[C@@H](C)O)C(C)C)C(C)C)[C@@H](C)CC)[C@@H](C)OC(=O)[C@H](C(C)C)NC1=O [Compound 39, [D-Glu^13]-KF] | 6.63E−06 | 4.41 | 6.63 | 3.39 | 6.63E−06 | 6.63 | 2.16E−06 | 1.2 | 3.87 | 0.889 | 1.72E−06 | 3.34 | 0.889 | 1.70E−06 | 3.26 | 3.48 | 6.63 | 6.63E−06 | 1.33 | 4.11 | TGI IGROV (IGROV-1): 2.33E−06 Molar; GI50 (IGROV-ET): 1.29 µM; TGI IGROV-ET (IGROV-ET): 2.29E−06 Molar; CC50 (IGROV-ET): 4.09 µM; GI50 (HeLa): 4.18 µM; TGI HELA (HeLa): 6.63E−06 Molar; CC50 (HeLa): 6.63 µM; GI50 (HeLa-APL): 2.75 µM; TGI HELA-APL (HeLa-APL): 6.63E−06 Molar; CC50 (HeLa-APL): 6.63 µM; GI50 (K-562): 1.27 µM; TGI K-562 (K-562): 2.47E−06 Molar; CC50 (K-562): 4.82 µM; GI50 (PANC-1): 4.1 µM; TGI PANC-1 (PANC-1): 6.63E−06 Molar; CC50 (PANC-1): 6.63 µM
C/C=C1\NC(=O)[C@H](Cc2ccccc2)NC(=O)[C@@H](C(C)C)NC(=O)[C@@H]([C@@H](C)CC)NC(=O)[C@H](NC(=O)[C@H](NC(=O)[C@H](CCCN)NC(=O)[C@H]2CCCN2C(=O)[C@H](NC(=O)[C@@H](NC(=O)[C@@H](NC(=O)[C@@H](CCC(N)=O)NC(=O)CCCC(C)C)[C@@H](C)O)C(C)C)C(C)C)[C@@H](C)CC)[C@@H](C)OC(=O)[C@H](C(C)C)NC1=O [Compound 40, [D-Gln^13]-KF] | 7.83E−07 | 0.318 | 2.45 | 1.22 | 2.27E−06 | 4.2 | 1.87E−06 | 0.949 | 3.69 | 0.664 | 1.41E−06 | 2.98 | 0.267 | 8.23E−07 | 2.23 | 1.79 | 5.24 | 3.06E−06 | 1.04 | 3.62 | TGI IGROV (IGROV-1): 1.94E−06 Molar; GI50 (IGROV-ET): 1.31 µM; TGI IGROV-ET (IGROV-ET): 2.24E−06 Molar; CC50 (IGROV-ET): 3.79 µM; GI50 (HeLa): 0.642 µM; TGI HELA (HeLa): 1.58E−06 Molar; CC50 (HeLa): 3.86 µM; GI50 (HeLa-APL): 2.28 µM; TGI HELA-APL (HeLa-APL): 5.94E−06 Molar; CC50 (HeLa-APL): 6.64 µM; GI50 (K-562): 1.23 µM; TGI K-562 (K-562): 2.34E−06 Molar; CC50 (K-562): 4.42 µM; GI50 (PANC-1): 0.13 µM; TGI PANC-1 (PANC-1): 3.01E−07 Molar; CC50 (PANC-1): 0.863 µM
